In patent EP0845217A1, “Inhibiting undesirable taste in oral compositions” (priority 1996, dated 1998):

Columns and labels:
[1] = molecular target: alkaline phosphatase (Bos taurus, UniProt P19111); type: biochemical, bovine; settings: PNPP substrate
Description: Enzyme kinetics experiments are done using purified alkaline phosphatase from bovine intestine and the substrate para-nitrophenyl phosphate (PNPP). The formation of colored para-nitrophenol (PNP) from colorless PNPP is followed by measuring the color formation in the presence of inhibitor at several concentrations.
Specifically, enzyme reactions are done in a volume of 200 ul containing 12.5 mU/ml alkaline phosphatase, PNPP at concentrations between 0.5-200 mM, and an inhibitor at concentrations between 0-100 mM. […] Phosphoserine is the natural substrate for this enzyme. The final buffer solution is 0.9 M diethanolamine and 0.5 mM […], pH 9.8, mixed 3:1 (v:v) with water. Reactions are done in a 96-well microtiter plate. The enzyme reaction is initiated by the addition of the enzyme. Each reaction mixture is done in triplicate. The enzyme reaction is monitored by measuring the optical density (OD) at 405 nm, with a reference OD of 490 nm. The OD's are read every 30 seconds over a 15 minute period at room temperature. PNP concentration is determined based on a standard curve correlating OD405/490 vs. PNP concentration. […] The data is then transformed and plotted as the Kmapp / Vmax. vs. inhibitor concentration. From these plots the dissociation constant of the enzyme-inhibitor complex, Ki, is determined. The x-intercept on this plot equals (-Ki). […]

[2] = system: acid phosphatase (EC 3.1.3.2) type V; experiment: Acid phosphatase enzyme kinetics with PNPP substrate; type: biochemical, bovine
Description: Enzyme kinetics are done using purified acid phosphatase (EC 3.1.3.2) type V from bovine milk with PNPP as the substrate. The enzyme kinetics experiments are done similarly to the kinetics experiments for alkaline phosphatase, described above.
The buffer is 0.2 M sodium acetate buffer, pH 5.6. Reactions are done in a 96-well microtiter plate. The enzyme reaction is initiated by the addition of enzyme. The enzyme reaction is stopped by the addition of 50 ul of 3 N NaOH to each well. Reaction times are from 0-15 minutes, at 30 second intervals. As described previously, the reaction rate is determined by measurement of the formation of colored product, PNP, which correlates with OD405/490. Acid phosphatase has a linear enzyme reaction rate for 15 minutes with the concentration ranges tested. Calculation of the Ki is done as described above.

[3] = system: purified protein tyrosine phosphatase; experiment: Purified protein tyrosine phosphatase, dephosphorylation of phosphotyrosine-containing peptide substrates; type: biochemical; settings: experiments not described
[4] = system: human taste response to bitter-tasting compounds; experiment: Human taste test: detection threshold of bitter-tasting compounds with and without VMP; type: in vivo; settings: 0.3% VMP
Description: In the first taste test, the detection threshold for a bitter-tasting compound is determined by having subjects taste a series of solutions containing increasing concentrations of the bitter-tasting compound. None of the subjects are able to taste the bitterness in the first solution containing the lowest concentration of the bitter-tasting molecule. The subjects are instructed to indicate the first, or lowest concentration of solution that is sensed as bitter. This concentration is the detection threshold for that particular compound and subject. […] The detection threshold for the bitter-tasting compound plus inhibitor is likewise determined. All of these aqueous solutions contain 5% sucrose. […] The dilution series are in ^1/2 log increments (i.e., 1 uM, 3.2 uM, 10 uM, 32 uM). The pair of dilution series with and without inhibitor is tasted within a 2 hour time period. Subjects are blinded as to the identity of the bitter compound and whether inhibitor is present or not. The two dilution series are presented in random order. […]

[5] = system: human taste response to bitter-tasting compounds; experiment: Human taste test: paired comparisons of bitter-tasting compounds with and without VMP; type: in vivo; settings: inhibitor 0.3%; for Cert. (%): mean certainty score
Source text: In this test all samples contain 5% sucrose. […] Subjects rate which sample is most bitter, and also indicate on a 7 point scale the certainty of their choice. […] However, it inhibits bitterness of phenylpropanolamine and guaifenesin to a lesser degree.

[6] = acetaminophen 10.00 mM, total # responses 4
[7] = acetaminophen 32.00 mM, total # responses 5
[8] = chlorpheniramine maleate 0.100 mM, total # responses 4
[9] = chlorpheniramine maleate 1.000 mM, total # responses 4
[10] = dextromethorphan 0.320 mM, total # responses 4
[11] = guaifenesin 0.320 mM, total # responses 4
[12] = guaifenesin 3.200 mM, total # responses 4
[13] = guaifenesin 10.00 mM, total # responses 4
[14] = phenylpropanolamine HCl 3.200 mM, total # responses 5
[15] = phenylpropanolamine HCl 10.00 mM, total # responses 5
[16] = pseudoephedrine HCl 0.320 mM, total # responses 5
[17] = pseudoephedrine HCl 1.000 mM, total # responses 5
[18] = sucrose octaacetate 0.001 mM, total # responses 5
[19] = sucrose octaacetate 0.003 mM, total # responses 5

alkaline phosphatase, sequence (P19111 20-506): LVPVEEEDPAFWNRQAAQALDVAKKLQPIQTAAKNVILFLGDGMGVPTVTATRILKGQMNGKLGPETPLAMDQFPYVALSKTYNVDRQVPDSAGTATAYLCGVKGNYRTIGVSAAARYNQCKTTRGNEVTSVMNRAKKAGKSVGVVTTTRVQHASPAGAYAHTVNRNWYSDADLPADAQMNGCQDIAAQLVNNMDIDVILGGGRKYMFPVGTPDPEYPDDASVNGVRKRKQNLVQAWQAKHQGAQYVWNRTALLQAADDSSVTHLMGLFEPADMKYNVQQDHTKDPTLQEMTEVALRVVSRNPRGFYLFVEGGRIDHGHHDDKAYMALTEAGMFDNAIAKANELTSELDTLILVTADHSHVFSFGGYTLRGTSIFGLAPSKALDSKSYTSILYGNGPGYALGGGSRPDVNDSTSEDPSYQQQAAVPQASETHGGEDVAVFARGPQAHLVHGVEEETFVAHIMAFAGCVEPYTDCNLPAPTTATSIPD

With vanillylmonophosphate [VMP] the “type of inhibition of alkaline phosphatase” value [1] was “competitively inhibited”, the “type of inhibition of acid phosphatase” value ([2]; PNPP substrate) was “competitively inhibited” and the Ki ([2]; PNPP substrate at room temperature, pH 5.6) was 9.16 mM. The “effect on tyrosine phosphatase activity against peptide substrates” value [3] was “inhibits the activity”, the “# VMP did not change threshold” value ([4]; CPC, n 2) was 1 and the “# VMP increased threshold” value ([4]; CPC, n 2) was 0. For the same substance, the “% Subjects that VMP increased threshold” value ([4]; CPC, n 2) was 0.00%, the “# VMP did not change threshold” value ([4]; acetaminophen, n 5) was 3 and the “# VMP increased threshold” value ([4]; acetaminophen, n 5) was 2. For the same substance, the “% Subjects that VMP increased threshold” value ([4]; acetaminophen, n 5) was 40.00%, the “# VMP did not change threshold” value ([4]; caffeine, n 4) was 3 and the “# VMP increased threshold” value ([4]; caffeine, n 4) was 0. For the same substance, the “% Subjects that VMP increased threshold” value ([4]; caffeine, n 4) was 0.00%, the “# VMP did not change threshold” value ([4]; chlorpheniramine maleate, n 5) was 0 and the “# VMP increased threshold” value ([4]; chlorpheniramine maleate, n 5) was 4. For the same substance, the “% Subjects that VMP increased threshold” value ([4]; chlorpheniramine maleate, n 5) was 80.00%, the “# VMP did not change threshold” value ([4]; cimetidine, n 2) was 1 and the “# VMP increased threshold” value ([4]; cimetidine, n 2) was 1. For the same substance, the “% Subjects that VMP increased threshold” value ([4]; cimetidine, n 2) was 50.00%, the “# VMP did not change threshold” value ([4]; denatonium benzoate, n 4) was 2 and the “# VMP increased threshold” value ([4]; denatonium benzoate, n 4) was 2. For the same substance, the “% Subjects that VMP increased threshold” value ([4]; denatonium benzoate, n 4) was 50.00%, the “# VMP did not change threshold” value ([4]; dextromethorphan, n 5) was 4 and the “# VMP increased threshold” value ([4]; dextromethorphan, n 5) was 1. The “% Subjects that VMP increased threshold” value ([4]; dextromethorphan, n 5) was 20.00%, the “# VMP did not change threshold” value ([4]; domiphen bromide, n 4) was 3 and the “# VMP increased threshold” value ([4]; domiphen bromide, n 4) was 1. For the same substance, the “% Subjects that VMP increased threshold” value ([4]; domiphen bromide, n 4) was 25.00%, the “# VMP did not change threshold” value ([4]; doxylamine succinate, n 3) was 1 and the “# VMP increased threshold” value ([4]; doxylamine succinate, n 3) was 2. For the same substance, the “% Subjects that VMP increased threshold” value ([4]; doxylamine succinate, n 3) was 66.67%, the “# VMP did not change threshold” value ([4]; famotidine, n 3) was 3 and the “# VMP increased threshold” value ([4]; famotidine, n 3) was 0. The “% Subjects that VMP increased threshold” value ([4]; famotidine, n 3) was 0.00%, the “# VMP did not change threshold” value ([4]; guaifenesin, n 8) was 2 and the “# VMP increased threshold” value ([4]; guaifenesin, n 8) was 2. For the same substance, the “% Subjects that VMP increased threshold” value ([4]; guaifenesin, n 8) was 25.00%, the “# VMP did not change threshold” value ([4]; phenylpropanolamine, n 7) was 2 and the “# VMP increased threshold” value ([4]; phenylpropanolamine, n 7) was 4. For the same substance, the “% Subjects that VMP increased threshold” value ([4]; phenylpropanolamine, n 7) was 57.14%, the “# VMP did not change threshold” value ([4]; pseudoephedrine, n 5) was 2 and the “# VMP increased threshold” value ([4]; pseudoephedrine, n 5) was 2. The “% Subjects that VMP increased threshold” value ([4]; pseudoephedrine, n 5) was 40.00%, the “# VMP did not change threshold” value ([4]; ranitidine, n 3) was 1 and the “# VMP increased threshold” value ([4]; ranitidine, n 3) was 1. For the same substance, the “% Subjects that VMP increased threshold” value ([4]; ranitidine, n 3) was 33.33%, the “# VMP did not change threshold” value ([4]; sucrose octaacetate, n 7) was 4 and the “# VMP increased threshold” value ([4]; sucrose octaacetate, n 7) was 1. The “% Subjects that VMP increased threshold” value ([4]; sucrose octaacetate, n 7) was 14.29%, the “Cert. (%)” value ([5]; acetaminophen 10.00 mM) was 43% and the Corr./Tot. [5, 6] was 0.50. The “Correct # responses” value [5, 6] was 2, the “Cert. (%)” value ([5]; acetaminophen 32.00 mM) was 29% and the Corr./Tot. [5, 7] was 0.80. The “Correct # responses” value [5, 7] was 4, the “Cert. (%)” value ([5]; chlorpheniramine maleate 0.100 mM) was 54% and the Corr./Tot. [5, 8] was 1.00. The “Correct # responses” value [5, 8] was 4, the “Cert. (%)” value ([5]; chlorpheniramine maleate 1.000 mM) was 71% and the Corr./Tot. [5, 9] was 1.00. The “Correct # responses” value [5, 9] was 4, the “Cert. (%)” value ([5]; dextromethorphan 0.320 mM) was 82% and the Corr./Tot. [5, 10] was 1.00. For the same substance, the “Correct # responses” value [5, 10] was 4, the “Cert. (%)” value ([5]; guaifenesin 0.320 mM) was 14% and the Corr./Tot. [5, 11] was 0.50. For the same substance, the “Correct # responses” value [5, 11] was 2, the “Cert. (%)” value ([5]; guaifenesin 3.200 mM) was 36% and the Corr./Tot. [5, 12] was 0.50. For the same substance, the “Correct # responses” value [5, 12] was 2, the “Cert. (%)” value ([5]; guaifenesin 10.00 mM) was 57% and the Corr./Tot. [5, 13] was 0.75. For the same substance, the “Correct # responses” value [5, 13] was 3, the “Cert. (%)” value ([5]; phenylpropanolamine HCl 3.200 mM) was 11% and the Corr./Tot. [5, 14] was 0.40. For the same substance, the “Correct # responses” value [5, 14] was 2, the “Cert. (%)” value ([5]; phenylpropanolamine HCl 10.00 mM) was 49% and the Corr./Tot. [5, 15] was 0.80. The “Correct # responses” value [5, 15] was 4, the “Cert. (%)” value ([5]; pseudoephedrine HCl 0.320 mM) was 14% and the Corr./Tot. [5, 16] was 0.60. The “Correct # responses” value [5, 16] was 3, the “Cert. (%)” value ([5]; pseudoephedrine HCl 1.000 mM) was 34% and the Corr./Tot. [5, 17] was 0.40. The “Correct # responses” value [5, 17] was 2, the “Cert. (%)” value ([5]; sucrose octaacetate 0.001 mM) was 20% and the Corr./Tot. [5, 18] was 0.20. For the same substance, the “Correct # responses” value [5, 18] was 1, the “Cert. (%)” value ([5]; sucrose octaacetate 0.003 mM) was 23% and the Corr./Tot. [5, 19] was 0.40. The “Correct # responses” value [5, 19] was 2.
